# Data taken from patent publication US8471005B2 (Cephalon, Inc., priority 2008, dated 2013).
# Like-named read-outs stand apart in the source and are kept apart here.
# Tests used:
# ALK = biological target: T1, ALK (Homo sapiens, UniProt Q9UM73); assay: ALK Kinase Assay (ELISA/TRF, PLC-γ substrate); assay type: biochemical; conditions: read-out: ALK Potency
# T1 construct: host or cells: baculovirus expression system
# How it was run: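 IC50 values derive from percent inhibition plotted against log10 compound concentration and fitted to a variable-slope sigmoidal equation. The underlying reaction used 30 ng/ml ALK acting on immobilized PLC-γ (10 μg/mL in TBS) at 37° C for 15 minutes, read with Eu-N1 PT66 antibody.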
# JAK2 = biological target: T2, JAK2 (Homo sapiens, UniProt O60674); assay: Recombinant Human JAK2 Kinase Assay (TRF); assay type: biochemical; conditions: read-out: JAK2 Potency
# T2 construct: host or cells: baculovirus expression system
# How it was run: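 Kinase activity of baculovirus-expressed JAK2 is followed on a surface-immobilised biotinylated peptide, with the reaction run for 20 min at room temperature in buffer containing 0.2 μM ATP and manganese. Phosphorylation is read with Eu-N1 PY100 antibody.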
# [1] = ALK kinase inhibition, 1 μM ATP
# [2] = JAK2 kinase inhibition, 0.2 μM ATP
# T1 sequence (Q9UM73 19-1620): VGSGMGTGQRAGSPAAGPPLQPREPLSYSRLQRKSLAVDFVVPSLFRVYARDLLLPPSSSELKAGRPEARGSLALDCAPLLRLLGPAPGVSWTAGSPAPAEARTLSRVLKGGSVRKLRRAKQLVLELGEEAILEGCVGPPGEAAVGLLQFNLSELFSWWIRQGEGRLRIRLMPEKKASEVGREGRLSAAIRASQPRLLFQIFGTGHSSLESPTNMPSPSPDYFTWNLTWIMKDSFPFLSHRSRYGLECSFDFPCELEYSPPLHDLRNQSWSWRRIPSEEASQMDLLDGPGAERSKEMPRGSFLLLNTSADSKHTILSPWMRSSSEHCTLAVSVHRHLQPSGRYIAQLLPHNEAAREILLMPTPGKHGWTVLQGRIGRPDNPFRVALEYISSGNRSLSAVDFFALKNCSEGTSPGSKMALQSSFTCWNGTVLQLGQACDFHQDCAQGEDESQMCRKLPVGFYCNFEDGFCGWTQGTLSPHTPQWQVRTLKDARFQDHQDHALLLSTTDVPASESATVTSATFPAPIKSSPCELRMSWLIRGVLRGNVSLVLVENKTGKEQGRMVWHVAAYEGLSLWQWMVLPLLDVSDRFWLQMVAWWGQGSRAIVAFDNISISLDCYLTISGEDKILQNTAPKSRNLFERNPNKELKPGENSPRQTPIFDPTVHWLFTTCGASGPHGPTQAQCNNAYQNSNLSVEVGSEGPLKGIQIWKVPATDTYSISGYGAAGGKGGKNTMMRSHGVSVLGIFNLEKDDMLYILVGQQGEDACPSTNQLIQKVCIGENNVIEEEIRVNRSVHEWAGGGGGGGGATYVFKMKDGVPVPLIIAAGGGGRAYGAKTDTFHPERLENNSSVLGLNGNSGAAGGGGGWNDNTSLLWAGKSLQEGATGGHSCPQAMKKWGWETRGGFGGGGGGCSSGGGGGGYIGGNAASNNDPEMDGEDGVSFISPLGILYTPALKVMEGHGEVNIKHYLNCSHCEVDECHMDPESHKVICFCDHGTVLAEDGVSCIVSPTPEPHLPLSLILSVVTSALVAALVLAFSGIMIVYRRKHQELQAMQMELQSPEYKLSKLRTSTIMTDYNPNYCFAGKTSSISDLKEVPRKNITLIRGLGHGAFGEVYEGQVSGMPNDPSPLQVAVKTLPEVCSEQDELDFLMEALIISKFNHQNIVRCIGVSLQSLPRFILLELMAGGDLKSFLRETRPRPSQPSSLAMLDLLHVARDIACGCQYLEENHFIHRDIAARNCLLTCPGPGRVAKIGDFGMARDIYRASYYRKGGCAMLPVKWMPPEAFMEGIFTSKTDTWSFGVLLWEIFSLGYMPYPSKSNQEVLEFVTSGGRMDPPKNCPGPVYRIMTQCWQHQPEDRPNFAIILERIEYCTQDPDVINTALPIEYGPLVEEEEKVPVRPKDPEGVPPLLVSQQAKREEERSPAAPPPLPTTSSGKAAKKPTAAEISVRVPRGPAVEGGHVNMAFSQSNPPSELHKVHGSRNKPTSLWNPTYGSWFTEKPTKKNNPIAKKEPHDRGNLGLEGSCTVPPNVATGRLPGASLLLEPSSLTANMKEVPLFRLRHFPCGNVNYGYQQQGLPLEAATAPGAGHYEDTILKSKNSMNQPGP
# T2 sequence (O60674 whole entry): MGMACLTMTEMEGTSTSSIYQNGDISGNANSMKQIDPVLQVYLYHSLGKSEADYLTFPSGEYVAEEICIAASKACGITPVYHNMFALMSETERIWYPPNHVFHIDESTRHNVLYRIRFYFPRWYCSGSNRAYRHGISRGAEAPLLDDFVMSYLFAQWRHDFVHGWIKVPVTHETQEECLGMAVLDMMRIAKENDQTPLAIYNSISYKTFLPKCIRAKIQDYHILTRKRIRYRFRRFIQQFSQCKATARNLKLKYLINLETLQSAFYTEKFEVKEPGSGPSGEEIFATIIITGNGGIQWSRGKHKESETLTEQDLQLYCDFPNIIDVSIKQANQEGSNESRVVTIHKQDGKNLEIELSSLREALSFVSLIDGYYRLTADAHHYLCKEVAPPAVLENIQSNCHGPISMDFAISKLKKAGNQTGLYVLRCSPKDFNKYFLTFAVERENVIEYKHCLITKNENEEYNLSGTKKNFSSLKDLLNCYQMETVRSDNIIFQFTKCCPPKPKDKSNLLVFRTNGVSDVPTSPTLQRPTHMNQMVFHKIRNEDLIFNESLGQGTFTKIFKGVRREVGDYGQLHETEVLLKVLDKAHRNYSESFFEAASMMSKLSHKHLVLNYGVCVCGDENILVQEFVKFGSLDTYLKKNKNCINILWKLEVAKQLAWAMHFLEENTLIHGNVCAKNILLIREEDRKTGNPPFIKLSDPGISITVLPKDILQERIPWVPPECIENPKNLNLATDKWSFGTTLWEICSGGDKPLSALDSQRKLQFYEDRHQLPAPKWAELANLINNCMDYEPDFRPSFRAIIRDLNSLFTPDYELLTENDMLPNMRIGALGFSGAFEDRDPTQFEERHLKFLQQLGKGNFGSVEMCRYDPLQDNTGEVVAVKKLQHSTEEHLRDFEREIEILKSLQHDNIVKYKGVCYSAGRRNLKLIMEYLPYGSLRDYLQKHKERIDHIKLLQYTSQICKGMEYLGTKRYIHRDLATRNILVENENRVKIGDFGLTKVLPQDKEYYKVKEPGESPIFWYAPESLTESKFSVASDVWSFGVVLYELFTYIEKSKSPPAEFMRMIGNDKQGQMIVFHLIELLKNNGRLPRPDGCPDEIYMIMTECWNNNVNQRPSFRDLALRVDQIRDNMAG
structure (smiles),measurement,setting,value
"CN1CCN(C2CCN(c3ccc(Nc4ncc5cc6ccccc6n5n4)cc3)CC2)CC1 [Example 264, {4-[4-(4-Methyl-piperazin-1-yl)-piperidin-1-yl]-phenyl}-[1,2,4]triazino[1,6-a]indol-2-yl-amine]",IC50,ALK; ALK Kinase Inhibition,1000 to 10000 nM
same,IC50,JAK2; JAK2 Kinase Inhibition,< 100 nM
"CN1CCCC1COc1cccc(Nc2ncc3ccc(-c4cccc(S(=O)(=O)NC(C)(C)C)c4)n3n2)c1 (stereo not drawn) [Example 1005, N-tert-Butyl-3-{2-[3-(1-methyl-pyrrolidin-2-ylmethoxy)-phenylamino]-pyrrolo[2,1-f][1,2,4]triazin-7-yl}-benzenesulfonamide]",IC50,ALK; [1],< 100 nM
same,IC50,JAK2; [2],< 100 nM
"COc1ccccc1-c1ccc2cnc(Nc3cc[nH]n3)nn12 [Example 122, [7-(2-Methoxy-phenyl)-pyrrolo[2,1-f][1,2,4]triazin-2-yl]-(1H-pyrazol-3-yl)-amine]",IC50,ALK; ALK Kinase Inhibition,100 to 1000 nM
same,IC50,JAK2; JAK2 Kinase Inhibition,< 100 nM
"CN1CCN(C)C(c2ccc(Nc3ncc4ccc(-c5cccc(S(=O)(=O)N6CCOCC6)c5)n4n3)cc2)C1=O (stereo not drawn) [Example 1075, 1,4-Dimethyl-3-(4-{7-[3-(morpholine-4-sulfonyl)-phenyl]-pyrrolo[2,1-f][1,2,4]triazin-2-ylamino}-phenyl)-piperazin-2-one]",IC50,ALK; [1],> 10000 nM
same,IC50,JAK2; [2],< 100 nM
"CN1CCN(C(=O)C2CCN(c3ccc(Nc4ncc5ccc(-c6ccc(S(C)(=O)=O)cc6)n5n4)cc3)CC2)CC1 [Example 445, (1-{4-[7-(4-Methanesulfonyl-phenyl)-pyrrolo[2,1-f][1,2,4]triazin-2-ylamino]-phenyl}-piperidin-4-yl)-(4-methyl-piperazin-1-yl)-methanone]",IC50,ALK; ALK Kinase Inhibition,100 to 1000 nM
same,IC50,JAK2; JAK2 Kinase Inhibition,< 100 nM
"COc1cc(C2CCN(C[C@H](O)CO)CC2)ccc1Nc1ncc2ccc(-c3ccccc3OC)n2n1 [Example 761, (S)-3-(4-{3-Methoxy-4-[7-(2-methoxy-phenyl)-pyrrolo[2,1-f][1,2,4]triazin-2-ylamino]-phenyl}-piperidin-1-yl)-propane-1,2-diol]",IC50,ALK; [1],< 100 nM
same,IC50,JAK2; [2],100 to 1000 nM
"CC(C)(C)NS(=O)(=O)c1cccc(-c2ccc3cnc(Nc4ccc(C5CCC(N6CCOCC6)CC5)cc4)nn23)c1 (stereo not drawn) [Example 565, N-tert-Butyl-3-{2-[4-(4-morpholin-4-yl-cyclohexyl)-phenylamino]-pyrrolo[2,1-f][1,2,4]triazin-7-yl}-benzenesulfonamide]",IC50,ALK; [1],100 to 1000 nM
same,IC50,JAK2; [2],< 100 nM
"COc1cc(C2CCN(CC(N)=O)CC2)ccc1Nc1ncc2ccc(-c3cccc(S(=O)(=O)NC4CC4)c3)n2n1 [Example 697, 2-(4-{4-[7-(3-Cyclopropylsulfamoyl-phenyl)-pyrrolo[2,1-f][1,2,4]triazin-2-ylamino]-3-methoxy-phenyl}-piperidin-1-yl)-acetamide]",IC50,ALK; [1],< 100 nM
same,IC50,JAK2; [2],100 to 1000 nM
"COc1cc(N2CCC(N3CCCN(CCO)CC3)CC2)ccc1Nc1ncc2ccc(-c3ccccc3OC)n2n1 [Example 801, 2-[4-(1-{3-Methoxy-4-[7-(2-methoxy-phenyl)-pyrrolo[2,1-f][1,2,4]triazin-2-ylamino]-phenyl}-piperidin-4-yl)-[1,4]diazepan-1-yl]-ethanol]",IC50,ALK; [1],< 100 nM
same,IC50,JAK2; [2],< 100 nM
"CC1(C)C(=O)Nc2ccc(Nc3ncc4ccc(-c5ccccc5N5CCCS5(=O)=O)n4n3)cc21 [Example 1556, 5-({7-[2-(1,1-Dioxido-1,2-thiazolidin-2-yl)phenyl]pyrrolo[2,1-f][1,2,4]triazin-2-yl}amino)-3,3-dimethyl-1,3-dihydro-2H-indol-2-one]",IC50,ALK; ALK Kinase Inhibition,< 100 nM
same,IC50,JAK2; JAK2 Kinase Inhibition,< 100 nM
"C[C@H](O)CN1CCN(c2cc(F)c(Nc3ncc4ccc(-c5ccccc5N(C)S(C)(=O)=O)n4n3)cc2F)CC1 [Example 1482, N-[2-(2-{2,5-Difluoro-4-[4-((S)-2-hydroxy-propyl)-piperazin-1-yl]-phenylamino}-pyrrolo[2,1-f][1,2,4]triazin-7-yl)-phenyl]-N-methyl-methanesulfonamide]",IC50,ALK; ALK Kinase Inhibition,100 to 1000 nM
same,IC50,JAK2; JAK2 Kinase Inhibition,< 100 nM
"COc1ccccc1-c1cc(Br)c2cnc(Nc3ccc(N4CCN(C)CC4)cc3)nn12 [Example 101, [5-Bromo-7-(2-methoxy-phenyl)-pyrrolo[2,1-f][1,2,4]triazin-2-yl]-[4-(4-methyl-piperazin-1-yl)-phenyl]-amine]",IC50,ALK; ALK Kinase Inhibition,< 100 nM
same,IC50,JAK2; JAK2 Kinase Inhibition,< 100 nM
"CS(=O)(=O)c1cccc(-c2ccc3cnc(Nc4ccc(F)c(Cl)c4)nn23)c1 [Example 597, (3-Chloro-4-fluoro-phenyl)-[7-(3-methanesulfonyl-phenyl)-pyrrolo[2,1-f][1,2,4]triazin-2-yl]-amine]",IC50,ALK; [1],> 10000 nM
same,IC50,JAK2; [2],< 100 nM
"COc1ccccc1-c1ccc2cnc(Nc3ccc4c(c3)ncn4CCN3CCOCC3)nn12 [Example 1348, [7-(2-Methoxy-phenyl)-pyrrolo[2,1-f][1,2,4]triazin-2-yl]-[1-(2-morpholin-4-yl-ethyl)-1H-benzimidazol-5-yl]-amine]",IC50,ALK; [1],100 to 1000 nM
same,IC50,JAK2; [2],< 100 nM
"COc1ccc(Cl)cc1-c1ccc2cnc(Nc3ccc(N4CCC(N5CCN(C)CC5)CC4)cc3)nn12 [Example 311, [7-(5-Chloro-2-methoxy-phenyl)-pyrrolo[2,1-f][1,2,4]triazin-2-yl]-{4-[4-(4-methyl-piperazin-1-yl)-piperidin-1-yl]-phenyl}-amine]",IC50,ALK; ALK Kinase Inhibition,< 100 nM
same,IC50,JAK2; JAK2 Kinase Inhibition,< 100 nM
"CN1CCN(c2ccc(Nc3ncc4ccc(-c5ccccc5NS(C)(=O)=O)n4n3)cc2)CC1 [Example 429, N-(2-{2-[4-(4-Methyl-piperazin-1-yl)-phenylamino]-pyrrolo[2,1-f][1,2,4]triazin-7-yl}-phenyl)-methanesulfonamide]",IC50,ALK; ALK Kinase Inhibition,100 to 1000 nM
same,IC50,JAK2; JAK2 Kinase Inhibition,< 100 nM
"CCc1cc(-c2ccccc2OC)n2nc(Nc3ccc(N4CCN(C)CC4)cc3)ncc12 [Example 106, [5-Ethyl-7-(2-methoxy-phenyl)-pyrrolo[2,1-f][1,2,4]triazin-2-yl]-[4-(4-methyl-piperazin-1-yl)-phenyl]-amine]",IC50,ALK; ALK Kinase Inhibition,100 to 1000 nM
same,IC50,JAK2; JAK2 Kinase Inhibition,< 100 nM
"COc1ccc(-c2ccc3cnc(Nc4cccc(NCC(N)=O)c4)nn23)cn1 [Example 975, 2-{3-[7-(6-Methoxy-pyridin-3-yl)-pyrrolo[2,1-f][1,2,4]triazin-2-ylamino]-phenylamino}-acetamide]",IC50,ALK; [1],1000 to 10000 nM
same,IC50,JAK2; [2],< 100 nM
"CN1CCN(C2CCN(c3ccc(Nc4ncc5ccc(-c6cccnc6)n5n4)cc3)CC2)CC1 [Example 313, {4-[4-(4-Methyl-piperazin-1-yl)-piperidin-1-yl]-phenyl}-(7-pyridin-3-yl-pyrrolo[2,1-f][1,2,4]triazin-2-yl)-amine]",IC50,ALK; ALK Kinase Inhibition,100 to 1000 nM
same,IC50,JAK2; JAK2 Kinase Inhibition,< 100 nM
"COc1ccc(-c2ccc3cnc(Nc4ccc(N5CCN(CC(N)=O)CC5)c(F)c4)nn23)cn1 [Example 1415, 2-(4-{2-Fluoro-4-[7-(6-methoxy-pyridin-3-yl)-pyrrolo[2,1-f][1,2,4]triazin-2-ylamino]-phenyl}-piperazin-1-yl)-acetamide]",IC50,ALK; ALK Kinase Inhibition,100 to 1000 nM
same,IC50,JAK2; JAK2 Kinase Inhibition,< 100 nM
"COc1cc(N(C)C(=O)CN2CCN(C)CC2)ccc1Nc1ncc2ccc(-c3ccccc3N(C)S(C)(=O)=O)n2n1 [Example 471, N-(4-{7-[2-(Methanesulfonyl-methyl-amino)-phenyl]-pyrrolo[2,1-f][1,2,4]triazin-2-ylamino}-3-methoxy-phenyl)-N-methyl-2-(4-methyl-piperazin-1-yl)-acetamide]",IC50,ALK; [1],100 to 1000 nM
same,IC50,JAK2; [2],1000 to 10000 nM
